Measured values published in PubChem BioAssay AID1919003 (Molecular Pharmacology Branch, DTP, NCI, 2023).
“And” between values parts separate entries of the source, which are not always exact repeats. Identical values can stand only once.

Tested on: 786-0 complex spheroids with HUVEC/MSC, growth % test/control
Assay: Anticancer human tumor 786-0 cell line growth inhibition [AhR];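 also: compound exposure lasted seven days before the read-out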
Conditions: for viability, T/C: stronger effect = lower value
Method in brief: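 Spheroids combined tumor cells with HUVEC endothelial cells and human MSCs as stroma. AhR antagonists were paired with standard or investigational drugs, each dosed in half-log steps down from near clinical Cmax, or from 10 microM where Cmax was unknown.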

[1] = curve of first compound, second compound 0.1 µM
[2] = curve of first compound, second compound 0.316 µM
[3] = curve of first compound, second compound 1 µM
[4] = curve of first compound, second compound 3.16 µM
[5] = curve of first compound, second compound 10 µM

With `COc1cccc2c1C(=O)c1c(O)c3c(c(O)c1C2=O)CC(O)(C(=O)CO)CC3OC1CC(N)C(O)C(C)O1` (centres undefined) + CC(CO)NC(=O)c1cc(-c2ccc(Cl)cc2)nn(-c2cnn(C)c2)c1=O as the molecule, how does the IC50 [1] read?
The IC50 was 43 nM.

What about the IC50 [2] of the same molecule?
Its IC50 is less than 31.6 nM.

What about the IC50 [3] of the same molecule?
The IC50 was 45.5 nM.

And the IC50 [4]?
The IC50 was less than 31.6 nM.

And the IC50 [5]?
The IC50 was less than 31.6 nM.

What about the viability, T/C (second compound 0.1 µM, first compound 0.0316 µM) of the same molecule?
Its viability, T/C is 54.4%.

What about the viability, T/C (second compound 0.1 µM, first compound 0.1 µM) of the same molecule?
Its viability, T/C is 37.9%.

What about the viability, T/C (second compound 0.1 µM, first compound 0.316 µM) of the same molecule?
Its viability, T/C is 12.5%.

And the viability, T/C (second compound 0.1 µM, first compound 1 µM)?
The viability, T/C was 2.51%.

And the viability, T/C (second compound 0.1 µM, first compound 3.16 µM)?
The viability, T/C was 0.63%.

What about the viability, T/C (second compound 0.1 µM, first compound 10 µM) of the same molecule?
Its viability, T/C is 0.56%.

And the viability, T/C (second compound 0.316 µM, first compound 0.0316 µM)?
Its viability, T/C is 46.7%.

What about the viability, T/C (second compound 0.316 µM, first compound 0.1 µM) of the same molecule?
Its viability, T/C is 40%.

What about the viability, T/C (second compound 0.316 µM, first compound 0.316 µM) of the same molecule?
The viability, T/C was 14.3%.

What about the viability, T/C (second compound 0.316 µM, first compound 1 µM) of the same molecule?
Its viability, T/C is 3.11%.

What about the viability, T/C (second compound 0.316 µM, first compound 3.16 µM) of the same molecule?
The viability, T/C was 0.25%.

What about the viability, T/C (second compound 0.316 µM, first compound 10 µM) of the same molecule?
Its viability, T/C is 0.6%.

And the viability, T/C (second compound 1 µM, first compound 0.0316 µM)?
The viability, T/C was 54.3%.

What about the viability, T/C (second compound 1 µM, first compound 0.1 µM) of the same molecule?
Its viability, T/C is 40.6%.

What about the viability, T/C (second compound 1 µM, first compound 0.316 µM) of the same molecule?
Its viability, T/C is 11.6%.

And the viability, T/C (second compound 1 µM, first compound 1 µM)?
Its viability, T/C is 3.23%.

What about the viability, T/C (second compound 1 µM, first compound 3.16 µM) of the same molecule?
The viability, T/C was 0.45%.

What about the viability, T/C (second compound 1 µM, first compound 10 µM) of the same molecule?
The viability, T/C was 0.49%.

And the viability, T/C (second compound 3.16 µM, first compound 0.0316 µM)?
The viability, T/C was 47.4%.

And the viability, T/C (second compound 3.16 µM, first compound 0.1 µM)?
The viability, T/C was 42.3%.

And the viability, T/C (second compound 3.16 µM, first compound 0.316 µM)?
The viability, T/C was 10.9%.

What about the viability, T/C (second compound 3.16 µM, first compound 1 µM) of the same molecule?
The viability, T/C was 3.69%.

What about the viability, T/C (second compound 3.16 µM, first compound 3.16 µM) of the same molecule?
The viability, T/C was 0.34%.

And the viability, T/C (second compound 3.16 µM, first compound 10 µM)?
Its viability, T/C is 0.41%.

What about the viability, T/C (second compound 10 µM, first compound 0.0316 µM) of the same molecule?
The viability, T/C was 44.9%.

And the viability, T/C (second compound 10 µM, first compound 0.1 µM)?
Its viability, T/C is 37.5%.

What about the viability, T/C (second compound 10 µM, first compound 0.316 µM) of the same molecule?
The viability, T/C was 11.2%.

What about the viability, T/C (second compound 10 µM, first compound 1 µM) of the same molecule?
Its viability, T/C is 1.48%.

What about the viability, T/C (second compound 10 µM, first compound 3.16 µM) of the same molecule?
Its viability, T/C is 0.72%.

And the viability, T/C (second compound 10 µM, first compound 10 µM)?
The viability, T/C was 0.86%.

`CCN(c1cc(-c2ccc(CN3CCOCC3)cc2)cc(C(=O)NCc2c(C)cc(C)[nH]c2=O)c1C)C1CCOCC1` + CC(CO)NC(=O)c1cc(-c2ccc(Cl)cc2)nn(-c2cnn(C)c2)c1=O was tested. Which IC50 [1] did it give?
Its IC50 is greater than 3000 nM.

And the IC50 [2]?
The IC50 was greater than 3000 nM.

What about the IC50 [3] of the same molecule?
Its IC50 is greater than 3000 nM.

And the IC50 [4]?
The IC50 was greater than 3000 nM.

And the IC50 [5]?
Its IC50 is greater than 3000 nM.

What about the viability, T/C (second compound 0.1 µM, first compound 0.00949 µM) of the same molecule?
Its viability, T/C is 90.2%.

And the viability, T/C (second compound 0.1 µM, first compound 0.03 µM)?
The viability, T/C was 101%.

What about the viability, T/C (second compound 0.1 µM, first compound 0.0949 µM) of the same molecule?
The viability, T/C was 93.5%.

And the viability, T/C (second compound 0.1 µM, first compound 0.3 µM)?
The viability, T/C was 106%.

And the viability, T/C (second compound 0.1 µM, first compound 0.949 µM)?
The viability, T/C was 98.7%.

What about the viability, T/C (second compound 0.1 µM, first compound 3 µM) of the same molecule?
Its viability, T/C is 102%.

What about the viability, T/C (second compound 0.316 µM, first compound 0.00949 µM) of the same molecule?
Its viability, T/C is 108%.

And the viability, T/C (second compound 0.316 µM, first compound 0.03 µM)?
Its viability, T/C is 107%.

And the viability, T/C (second compound 0.316 µM, first compound 0.0949 µM)?
Its viability, T/C is 103%.

And the viability, T/C (second compound 0.316 µM, first compound 0.3 µM)?
Its viability, T/C is 101%.

What about the viability, T/C (second compound 0.316 µM, first compound 0.949 µM) of the same molecule?
Its viability, T/C is 103%.

What about the viability, T/C (second compound 0.316 µM, first compound 3 µM) of the same molecule?
The viability, T/C was 98.4%.

What about the viability, T/C (second compound 1 µM, first compound 0.00949 µM) of the same molecule?
The viability, T/C was 98.8%.

And the viability, T/C (second compound 1 µM, first compound 0.03 µM)?
Its viability, T/C is 102%.

What about the viability, T/C (second compound 1 µM, first compound 0.0949 µM) of the same molecule?
Its viability, T/C is 101%.

And the viability, T/C (second compound 1 µM, first compound 0.3 µM)?
The viability, T/C was 109%.

And the viability, T/C (second compound 1 µM, first compound 0.949 µM)?
The viability, T/C was 110%.

What about the viability, T/C (second compound 1 µM, first compound 3 µM) of the same molecule?
Its viability, T/C is 96.6%.

What about the viability, T/C (second compound 3.16 µM, first compound 0.00949 µM) of the same molecule?
The viability, T/C was 101%.

And the viability, T/C (second compound 3.16 µM, first compound 0.03 µM)?
The viability, T/C was 97.5%.

And the viability, T/C (second compound 3.16 µM, first compound 0.0949 µM)?
The viability, T/C was 106%.

What about the viability, T/C (second compound 3.16 µM, first compound 0.3 µM) of the same molecule?
The viability, T/C was 102%.

What about the viability, T/C (second compound 3.16 µM, first compound 0.949 µM) of the same molecule?
Its viability, T/C is 112%.

What about the viability, T/C (second compound 3.16 µM, first compound 3 µM) of the same molecule?
Its viability, T/C is 98.5%.

What about the viability, T/C (second compound 10 µM, first compound 0.00949 µM) of the same molecule?
The viability, T/C was 105%.

What about the viability, T/C (second compound 10 µM, first compound 0.03 µM) of the same molecule?
Its viability, T/C is 110%.

And the viability, T/C (second compound 10 µM, first compound 0.0949 µM)?
The viability, T/C was 102%.

And the viability, T/C (second compound 10 µM, first compound 0.3 µM)?
The viability, T/C was 116%.

And the viability, T/C (second compound 10 µM, first compound 0.949 µM)?
Its viability, T/C is 116%.

What about the viability, T/C (second compound 10 µM, first compound 3 µM) of the same molecule?
The viability, T/C was 106%.

Which results are given for `Nc1ncn(C2CC(O)C(CO)S2)c(=O)n1` (centres undefined)?
viability, T/C (compound 0.000949 µM): 109% and 99.9% and 112%; viability, T/C (compound 0.003 µM): 103% and 94.9% and 105%; viability, T/C (compound 0.00949 µM): 99.4% and 94.5% and 98.6%; viability, T/C (compound 0.03 µM): 102% and 107% and 100%; viability, T/C (compound 0.0949 µM): 73.2% and 96.8% and 89%; viability, T/C (compound 0.3 µM): 63.7% and 75.5% and 63.9%; IC50 (curve of compound): > 300 nM

With `COc1cc(C2c3cc4c(cc3C(OC3OC5COC(C)OC5C(O)C3O)C3COC(=O)C23)OCO4)cc(OC)c1O` (centres undefined) as the molecule, how does the viability, T/C (compound 0.0316 µM) read?
The viability, T/C was 101% and 104% and 103%.

What about the viability, T/C (compound 0.1 µM) of the same molecule?
Its viability, T/C is 100% and 95.1% and 109%.

What about the viability, T/C (compound 0.316 µM) of the same molecule?
The viability, T/C was 75% and 74.2% and 81.8%.

What about the viability, T/C (compound 1 µM) of the same molecule?
The viability, T/C was 46.5% and 25.8% and 49%.

What about the viability, T/C (compound 3.16 µM) of the same molecule?
The viability, T/C was 26.6% and 22.7% and 27%.

And the viability, T/C (compound 10 µM)?
Its viability, T/C is 5.89% and 5.81% and 13.3%.

What about the IC50 (curve of compound) of the same molecule?
The IC50 was 951 nM and 572 nM and 989 nM.
